Experiments:
Assay type in all cases: biochemical
[1] = target: T1, PI3Kγ (p120γ)(h) (Homo sapiens, UniProt P48736); experiment: PI3K-HTRF in vitro enzyme assay, PI3Kγ; settings: enzyme 0.4 μg/ml
T1 construct: purchased Upstate (Millipore Co) #14-558
Method: (§1) The compounds of the present invention were tested for the activity of phosphatidylinositol 3-kinase delta (PI3K) by using a PI3K enzyme-homogeneous time resolved fluorescence (PI3K-HTRF) kit, which is available under Upstate™ kit (Millipore Co, Billerica, Mass., USA). This kit system measures indirectly the amount of PIP3 produced via PI3K by detecting competitive inhibition of fluorescence complex formation.
(§2) There were used three kinds of buffer solutions, i.e., reaction buffer, stop solution, and detection solution. The reaction buffer was prepared by diluting Reaction Buffer (provided in Update™ kit) with distilled water 4 times and adding DTT to a concentration of 5 mM. The stop solution was prepared by combining STOP A and B Solutions (provided in Update™ kit) in a ratio of 3:1. The detection solution was prepared by combining Detection Solution A, B and C (provided in Update™ kit) in a ratio of 1:1:18. A substrate solution and an ATP solution were prepared by diluting the 1 mM PIP2 (phosphatidyl inositol 4,5 bi-phosphate) stock solution (provided in Update™ kit) and 10 mM ATP (Sigma-aldrich Co., St. Louis, Mo., USA) stock solution with the reaction buffer to concentrations of 20 μM and 40 μM, respectively. An enzyme solution was prepared by diluting PI3Kδ (#14˜604; Upstate™ kit) with the substrate solution to the concentration of 0.2 μg/ml (final reaction concentration: 0.1 μg/ml).
(§3) The test groups were prepared by dissolving each compound in 100% DMSO at 40× the final concentration and then diluting 10-fold with the reaction buffer. 5 μl of each diluted test group solution was transferred to a 384 well low flange white flat bottom microplate (#3572, Corning Life Sciences, Lowell, Mass., USA). We performed centrifuge (1 minute, 1000 rpm) and shaking for 2 minutes after every solution-adding step in this experiment. Next, 10 μl of the enzyme solution was added to each well. A mixed solution of the substrate solution (10 μl) plus 5 μl of the 100% DMSO diluted solution without test compound (i.e., 10% DMSO solution) was used as a negative control. And also, a mixed solution of enzyme solution (10 μl) plus 5 μl of the 100% DMSO diluted solution without test compound (i.e., 10% DMSO solution) was used as a positive control. This plate was pre-incubated for 10 minutes in a 25° C. incubator. After the pre-incubation, the phosphorylation reaction was induced by adding 5 μl of the ATP solution and the plate was incubated for 30 minutes in a 25° C. incubator. This enzyme reaction was stopped by 5 μl of the stop solution and then 5 μl of the detection solution was added thereto. To obtain enough fluorescence responses, the plate was incubated for 2 hours in a 25° C. incubator protected from light.
(§4) The time-resolved fluorescence resonance energy transfer (TR-FRET) rate was measured (emission wavelength: 665 nm, 620 nm, excitation wavelength: 313 nm) by using a Flexstation3 Micro plate reader (Molecular Devices, USA). TR-FRET Rate was calculated based on the Equation 1 and using these TR-FRET Rates, % inhibition rate of each compound was calculated based on the Equation 2. The IC50 values, i.e., the concentration of a test compound that inhibits 50% of PI3Kδ activity in vitro, are generated by Softmax program (Molecular Devices, USA). TR-FRET Rate=(Signal at 665 nm emission wavelength/Signal at 620 nm emission wavelength)×10000 <Equation 1> % Inhibition Rate=[(TR-FRET Rate of the test group−TR-FRET Rate of the positive control group)/(TR-FRET Rate of the negative control group−TR-FRET Rate of the positive control group)]×100 <Equation 2>
(§5) The compounds of the present invention were assayed for the activities of PI3K subtypes, i.e., PI3Kα, PI3Kβ and PI3Kγ, using the same procedures as in Experimental Example 1. […]

[2] = target: T2, PI3Kδ (p110δ/p85α)(h) (Homo sapiens, UniProt O00329); experiment: PI3K-HTRF in vitro enzyme assay, PI3Kδ; settings: enzyme 0.1 μg/ml
T2 construct: purchased Upstate (Millipore Co, Billerica, Mass., USA) #14˜604
T2 sequence (O00329 whole entry): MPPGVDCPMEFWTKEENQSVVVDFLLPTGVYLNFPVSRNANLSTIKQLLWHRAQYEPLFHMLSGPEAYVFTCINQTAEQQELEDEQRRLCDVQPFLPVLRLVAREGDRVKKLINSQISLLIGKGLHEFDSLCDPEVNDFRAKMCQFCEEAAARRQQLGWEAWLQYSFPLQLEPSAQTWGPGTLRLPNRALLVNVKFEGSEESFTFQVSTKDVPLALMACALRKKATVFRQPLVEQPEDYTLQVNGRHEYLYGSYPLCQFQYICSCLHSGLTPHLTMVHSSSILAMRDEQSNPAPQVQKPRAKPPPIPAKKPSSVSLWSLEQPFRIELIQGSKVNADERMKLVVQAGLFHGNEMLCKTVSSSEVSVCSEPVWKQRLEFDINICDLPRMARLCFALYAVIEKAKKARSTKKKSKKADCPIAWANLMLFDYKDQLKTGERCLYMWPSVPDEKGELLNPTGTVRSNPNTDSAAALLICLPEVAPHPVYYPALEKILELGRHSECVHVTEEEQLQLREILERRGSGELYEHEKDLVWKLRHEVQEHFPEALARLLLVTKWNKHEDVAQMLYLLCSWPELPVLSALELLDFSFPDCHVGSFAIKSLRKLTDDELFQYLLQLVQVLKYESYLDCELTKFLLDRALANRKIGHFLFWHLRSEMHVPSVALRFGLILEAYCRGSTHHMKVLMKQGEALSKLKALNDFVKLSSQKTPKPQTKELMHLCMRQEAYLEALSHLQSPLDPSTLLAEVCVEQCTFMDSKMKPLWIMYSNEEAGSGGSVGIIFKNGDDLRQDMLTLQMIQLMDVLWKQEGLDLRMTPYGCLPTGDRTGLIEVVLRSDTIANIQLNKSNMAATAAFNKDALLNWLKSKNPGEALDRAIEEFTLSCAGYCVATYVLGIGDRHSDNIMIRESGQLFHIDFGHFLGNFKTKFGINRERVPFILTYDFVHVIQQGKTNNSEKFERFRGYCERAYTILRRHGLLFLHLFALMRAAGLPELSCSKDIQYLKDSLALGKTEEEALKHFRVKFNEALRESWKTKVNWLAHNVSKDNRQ
T2 sequence (P27986 whole entry partner): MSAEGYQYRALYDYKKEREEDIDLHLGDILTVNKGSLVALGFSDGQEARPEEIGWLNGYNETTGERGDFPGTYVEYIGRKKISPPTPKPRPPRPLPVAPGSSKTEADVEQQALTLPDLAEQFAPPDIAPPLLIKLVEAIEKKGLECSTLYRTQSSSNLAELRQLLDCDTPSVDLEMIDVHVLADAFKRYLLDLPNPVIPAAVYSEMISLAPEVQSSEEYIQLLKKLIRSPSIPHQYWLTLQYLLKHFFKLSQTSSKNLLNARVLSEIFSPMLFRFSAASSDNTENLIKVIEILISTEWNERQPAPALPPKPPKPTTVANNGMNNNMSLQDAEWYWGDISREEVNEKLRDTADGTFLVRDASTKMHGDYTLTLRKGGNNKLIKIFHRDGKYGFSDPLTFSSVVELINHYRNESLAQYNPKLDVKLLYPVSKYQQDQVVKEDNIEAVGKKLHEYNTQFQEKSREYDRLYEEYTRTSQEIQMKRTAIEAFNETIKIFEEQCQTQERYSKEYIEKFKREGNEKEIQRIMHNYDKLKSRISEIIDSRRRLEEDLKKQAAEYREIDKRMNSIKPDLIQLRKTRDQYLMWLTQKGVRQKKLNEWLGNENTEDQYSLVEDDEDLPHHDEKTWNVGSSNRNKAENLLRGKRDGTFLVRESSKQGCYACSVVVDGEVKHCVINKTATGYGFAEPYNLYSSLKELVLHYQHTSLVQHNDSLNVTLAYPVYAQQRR
Method: as §1, §2, §3, §4

[3] = target: T3, PI3Kα (p110α/p85α)(h) (Homo sapiens, UniProt P42336); experiment: PI3K-HTRF in vitro enzyme assay, PI3Kα; settings: enzyme 0.1 μg/ml
T3 construct: purchased Upstate (Millipore Co) #14-602
T3 sequence (P42336 whole entry): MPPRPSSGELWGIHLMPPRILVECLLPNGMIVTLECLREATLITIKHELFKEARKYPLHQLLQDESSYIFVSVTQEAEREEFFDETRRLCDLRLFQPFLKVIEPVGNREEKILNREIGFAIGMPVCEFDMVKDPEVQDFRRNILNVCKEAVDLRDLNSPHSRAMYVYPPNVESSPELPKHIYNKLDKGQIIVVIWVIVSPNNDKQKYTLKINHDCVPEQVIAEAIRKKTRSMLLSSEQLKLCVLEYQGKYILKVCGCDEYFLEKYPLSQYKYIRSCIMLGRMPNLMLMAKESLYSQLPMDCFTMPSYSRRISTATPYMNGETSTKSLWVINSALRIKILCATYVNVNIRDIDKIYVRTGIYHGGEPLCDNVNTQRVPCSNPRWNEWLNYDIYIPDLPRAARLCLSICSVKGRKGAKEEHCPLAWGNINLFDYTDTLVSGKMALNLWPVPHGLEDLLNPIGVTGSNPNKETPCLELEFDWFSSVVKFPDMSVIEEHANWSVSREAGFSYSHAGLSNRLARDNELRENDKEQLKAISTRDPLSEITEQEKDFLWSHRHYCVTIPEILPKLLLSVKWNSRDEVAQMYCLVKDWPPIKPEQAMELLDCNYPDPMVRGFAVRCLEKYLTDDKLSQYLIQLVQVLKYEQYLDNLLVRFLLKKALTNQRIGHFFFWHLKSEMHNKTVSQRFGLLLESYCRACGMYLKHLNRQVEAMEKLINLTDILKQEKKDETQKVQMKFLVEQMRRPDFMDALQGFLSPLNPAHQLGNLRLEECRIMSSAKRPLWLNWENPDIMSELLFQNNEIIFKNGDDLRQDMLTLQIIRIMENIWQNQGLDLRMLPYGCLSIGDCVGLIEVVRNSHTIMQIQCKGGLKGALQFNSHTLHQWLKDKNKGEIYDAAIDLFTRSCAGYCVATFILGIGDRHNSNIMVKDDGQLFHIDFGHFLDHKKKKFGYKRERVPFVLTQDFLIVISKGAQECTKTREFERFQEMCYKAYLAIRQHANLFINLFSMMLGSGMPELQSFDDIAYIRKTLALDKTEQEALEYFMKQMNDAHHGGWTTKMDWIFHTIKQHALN
T3 sequence (P27986 whole entry partner): as the sequence (P27986 whole entry partner) above
Method: as §1, §2, §3, §4, §5

[4] = target: T4, PI3Kβ (p110β/p85α)(h) (Homo sapiens, UniProt P42338); experiment: PI3K-HTRF in vitro enzyme assay, PI3Kβ; settings: enzyme 0.4 μg/ml
T4 construct: purchased Upstate (Millipore Co) #14-603
T4 sequence (P42338 whole entry): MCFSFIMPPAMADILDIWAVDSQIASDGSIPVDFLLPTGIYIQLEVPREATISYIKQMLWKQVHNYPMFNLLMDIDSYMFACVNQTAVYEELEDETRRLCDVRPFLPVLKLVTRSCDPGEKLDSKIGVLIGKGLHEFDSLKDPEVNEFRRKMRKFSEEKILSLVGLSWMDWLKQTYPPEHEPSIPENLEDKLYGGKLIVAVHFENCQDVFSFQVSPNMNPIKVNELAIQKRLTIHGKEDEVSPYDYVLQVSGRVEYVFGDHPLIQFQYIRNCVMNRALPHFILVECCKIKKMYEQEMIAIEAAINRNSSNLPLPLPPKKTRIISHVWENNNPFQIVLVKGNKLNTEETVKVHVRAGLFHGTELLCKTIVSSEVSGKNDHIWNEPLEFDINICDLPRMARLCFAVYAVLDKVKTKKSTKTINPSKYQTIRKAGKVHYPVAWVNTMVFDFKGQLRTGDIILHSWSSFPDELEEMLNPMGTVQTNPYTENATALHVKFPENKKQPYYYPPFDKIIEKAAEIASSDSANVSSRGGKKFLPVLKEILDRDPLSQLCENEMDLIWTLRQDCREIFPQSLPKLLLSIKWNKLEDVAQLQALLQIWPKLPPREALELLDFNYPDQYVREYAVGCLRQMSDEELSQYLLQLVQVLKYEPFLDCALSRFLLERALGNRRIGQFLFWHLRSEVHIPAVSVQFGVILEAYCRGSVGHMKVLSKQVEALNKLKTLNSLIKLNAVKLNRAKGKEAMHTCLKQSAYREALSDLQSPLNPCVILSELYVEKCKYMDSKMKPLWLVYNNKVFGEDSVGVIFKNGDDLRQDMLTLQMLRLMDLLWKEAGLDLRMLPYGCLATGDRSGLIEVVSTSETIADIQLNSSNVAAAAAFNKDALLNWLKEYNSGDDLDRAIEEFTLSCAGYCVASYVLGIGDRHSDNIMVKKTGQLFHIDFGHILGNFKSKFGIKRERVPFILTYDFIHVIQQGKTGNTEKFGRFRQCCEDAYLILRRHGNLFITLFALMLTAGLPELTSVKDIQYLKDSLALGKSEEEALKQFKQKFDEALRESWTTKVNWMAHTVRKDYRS
T4 sequence (P27986 whole entry partner): as the sequence (P27986 whole entry partner) above
Method: as §1, §2, §3, §4, §5

T1 sequence (P48736 whole entry): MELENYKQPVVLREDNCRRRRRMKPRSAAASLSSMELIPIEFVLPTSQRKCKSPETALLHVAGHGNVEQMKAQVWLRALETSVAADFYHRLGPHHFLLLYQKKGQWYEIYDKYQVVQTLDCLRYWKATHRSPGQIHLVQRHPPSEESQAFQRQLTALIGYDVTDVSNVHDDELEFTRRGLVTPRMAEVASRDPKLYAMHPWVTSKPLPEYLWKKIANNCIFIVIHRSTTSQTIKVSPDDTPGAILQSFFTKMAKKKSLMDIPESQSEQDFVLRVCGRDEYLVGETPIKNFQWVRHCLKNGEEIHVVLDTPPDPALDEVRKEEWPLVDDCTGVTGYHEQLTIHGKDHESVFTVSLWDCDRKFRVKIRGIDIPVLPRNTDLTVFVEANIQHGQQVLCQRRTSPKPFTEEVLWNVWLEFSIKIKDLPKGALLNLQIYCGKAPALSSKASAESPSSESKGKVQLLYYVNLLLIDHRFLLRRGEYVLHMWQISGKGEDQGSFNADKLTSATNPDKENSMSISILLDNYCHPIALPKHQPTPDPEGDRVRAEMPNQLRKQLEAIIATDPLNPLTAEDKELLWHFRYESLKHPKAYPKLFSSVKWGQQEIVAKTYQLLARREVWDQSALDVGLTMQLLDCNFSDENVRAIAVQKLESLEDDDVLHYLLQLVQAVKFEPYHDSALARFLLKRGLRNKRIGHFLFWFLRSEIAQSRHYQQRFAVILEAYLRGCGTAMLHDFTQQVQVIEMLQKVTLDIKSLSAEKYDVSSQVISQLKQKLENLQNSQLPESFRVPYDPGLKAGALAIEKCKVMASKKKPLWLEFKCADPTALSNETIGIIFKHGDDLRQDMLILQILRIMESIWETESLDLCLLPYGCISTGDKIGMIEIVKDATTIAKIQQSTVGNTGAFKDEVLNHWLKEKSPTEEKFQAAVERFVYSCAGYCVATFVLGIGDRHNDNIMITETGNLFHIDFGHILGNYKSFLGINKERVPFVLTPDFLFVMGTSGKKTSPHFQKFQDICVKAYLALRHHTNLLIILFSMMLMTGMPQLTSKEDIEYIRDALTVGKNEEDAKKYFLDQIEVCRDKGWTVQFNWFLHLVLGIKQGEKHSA

**Q.** Which results are given for CCC[C@H](Nc1ncnc2ccc(C#N)cc12)c1nc2cccc(-c3cnc(OC)nc3)c2c(=O)n1-c1ccccc1 [Example 10, (S)-4-((1-(5-(2-methoxypyrimidin-5-yl)-4-oxo-3-phenyl-3,4-dihydroquinazolin-2-yl)butyl)amino)quinazoline-6-carbonitrile]?
**A.** IC50 [1]: 465 nM; IC50 [2]: 17 nM; IC50 [3]: 3420 nM; IC50 [4]: 7500 nM

**Q.** How did the IC50 [1] turn out when CCC[C@H](Nc1ncnc2ccc(C#N)cc12)c1nc2cccc(-c3cnc(OCC)nc3)c2c(=O)n1-c1ccccc1 [Example 11, (S)-4-((1-(5-(2-ethoxypyrimidin-5-yl)-4-oxo-3-phenyl-3,4-dihydroquinazolin-2-yl)butyl)amino)quinazoline-6-carbonitrile] was run?
**A.** 432 nM

**Q.** And the IC50 [2]?
**A.** 16 nM

**Q.** And the IC50 [3]?
**A.** 4740 nM

**Q.** What about the IC50 [4] of the same compound?
**A.** 8950 nM

**Q.** C[C@H](Nc1ncnc2ccc(C#N)cc12)c1nc2cccc(-c3cnc(N)nc3)c2c(=O)n1-c1ccccc1 [Example 2, (S)-4-((1-(5-(2-aminopyrimidin-5-yl)-4-oxo-3-phenyl-3,4-dihydroquinazolin-2-yl)ethyl)amino)quinazoline-6-carbonitrile] was tested. Which IC50 [1] did it give?
**A.** 117 nM

**Q.** What about the IC50 [2] of the same compound?
**A.** 4 nM

**Q.** What about the IC50 [3] of the same compound?
**A.** 598 nM

**Q.** And the IC50 [4]?
**A.** 6710 nM

**Q.** Which results are given for C[C@H](Nc1ncnc2cccc(F)c12)c1cc2cccc(-c3cnc(N)nc3)c2c(=O)n1-c1ccccc1 [Example 43, (S)-8-(2-aminopyrimidin-5-yl)-3-(1-((5-fluoroquinazolin-4-yl)amino)ethyl)-2-phenylisoquinolin-1(2H)-one]?
**A.** IC50 [1]: 283 nM; IC50 [2]: 13 nM; IC50 [3]: 2670 nM; IC50 [4]: 8860 nM

**Q.** With Cc1ncc(-c2cccc3cc([C@H](C)Nc4ncnc5ccc(C#N)cc45)n(-c4ccc(F)cc4)c(=O)c23)cn1 [Example 38, (S)-4-((1-(2-(4-fluorophenyl)-8-(2-methylpyrimidin-5-yl)-1-oxo-1,2-dihydroisoquinolin-3-yl)ethyl)amino)quinazoline-6-carbonitrile] as the compound, how does the IC50 [1] read?
**A.** 67 nM

**Q.** And the IC50 [2]?
**A.** 26 nM

**Q.** What about the IC50 [3] of the same compound?
**A.** 635 nM

**Q.** And the IC50 [4]?
**A.** 9820 nM

**Q.** For CC[C@H](Nc1ncnc2cccc(F)c12)c1nc2cccc(-c3cnc(N)nc3)c2c(=O)n1-c1ccccc1 [Example 25, (S)-5-(2-aminopyrimidin-5-yl)-2-(1-((5-fluoroquinazolin-4-yl)amino)propyl)-3-phenylquinazolin-4(3H)-one], which IC50 [1] is on record?
**A.** 1230 nM

**Q.** And the IC50 [2]?
**A.** 10 nM

**Q.** And the IC50 [3]?
**A.** 1460 nM

**Q.** What about the IC50 [4] of the same compound?
**A.** 9590 nM

**Q.** CCOc1ncc(-c2cccc3cc([C@H](C)Nc4ncnc5ccc(C#N)cc45)n(-c4ccccc4)c(=O)c23)cn1 [Example 34, (S)-4-((1-(8-(2-ethoxypyrimidin-5-yl)-1-oxo-2-phenyl-1,2-dihydroisoquinolin-3-yl)ethyl)amino)quinazoline-6-carbonitrile] was tested. Which IC50 [1] did it give?
**A.** 324 nM

**Q.** And the IC50 [2]?
**A.** 17 nM

**Q.** And the IC50 [3]?
**A.** 1350 nM

**Q.** What about the IC50 [4] of the same compound?
**A.** 7390 nM

**Q.** For CC(C)[C@H](Nc1ncnc2cccc(F)c12)c1cc2cccc(-c3cnc(N)nc3)c2c(=O)n1-c1ccccc1 [Example 46, (S)-8-(2-aminopyrimidin-5-yl)-3-(1-((5-fluoroquinazolin-4-yl)amino)-2-methylpropyl)-2-phenylisoquinolin-1(2H)-one], which IC50 [1] is on record?
**A.** 1580 nM

**Q.** And the IC50 [2]?
**A.** 12 nM

**Q.** What about the IC50 [3] of the same compound?
**A.** 2950 nM

**Q.** What about the IC50 [4] of the same compound?
**A.** 7950 nM

**Q.** How did the IC50 [1] turn out when CC[C@H](Nc1ncnc2ccc(C#N)cc12)c1nc2cccc(-c3cnc(N)nc3)c2c(=O)n1C1CC1 [Example 21, (S)-4-((1-(5-(2-aminopyrimidin-5-yl)-3-cyclopropyl-4-oxo-3,4-dihydroquinazolin-2-yl)propyl)amino)quinazoline-6-carbonitrile] was run?
**A.** 371 nM

**Q.** And the IC50 [2]?
**A.** 13 nM

**Q.** And the IC50 [3]?
**A.** 650 nM

**Q.** What about the IC50 [4] of the same compound?
**A.** 3730 nM
